Data as given in article PMC4870302, “In Vitro and In Vivo Comparison of Selected Ga-68 and Zr-89 Labelled Siderophores” (Molecular Imaging and Biology, 2015).

Key:
[1] = In vitro stability in fresh human serum (RP-HPLC); type: in vitro ADME; conditions: for Stability in human serum (%) (n = 1): 37 °C; for in vitro stability (in words): human serum and 6 mM DTPA, all examined media
Experimental: […] After incubation, human serum samples were precipitated with acetonitrile or ethanol, centrifuged (2200×g, 3 min) and the supernatant analyzed. Degradation of the radiolabelled siderophore complexes was evaluated by RP-HPLC. Samples of the DTPA solutions were directly injected onto the HPLC.

[2] = In vitro stability in 6 mM DTPA solution pH 7 (RP-HPLC); type: physicochemical; conditions: 6 mM DTPA pH 7, 37 °C
Experimental: The in vitro stability of radiolabelled siderophores (3–6 μg/100 μl) was tested in fresh human serum (300 μl) and a 6 mM solution of diethylenetriaminepentaacetic acid (DTPA) pH = 7 (100 μl) at 37 °C at several time points (30, […]). After incubation, human serum samples were precipitated with acetonitrile or ethanol, centrifuged (2200×g, 3 min) and the supernatant analyzed. Degradation of the radiolabelled siderophore complexes was evaluated by RP-HPLC. Samples of the DTPA solutions were directly injected onto the HPLC.

[3] = Partition coefficient determination (octanol/PBS pH 7.4); type: physicochemical
Experimental: Radiolabelled siderophore in 0.5 ml phosphate-buffered saline (PBS) pH = 7.4 was added to 0.5 ml octanol and the mixture was vigorously vortexed for 15 min. The aqueous and organic solvents were separated by centrifugation and 50 μl aliquots of both layers were collected and measured in the automatic gamma counter (WIZARD^2; PerkinElmer, Waltham, USA). Log P values were calculated from obtained data (mean of n = 6).

[4] = Protein binding in fresh human serum (size-exclusion MicroSpin G-50); type: in vitro ADME; conditions: for Protein binding (%) (mean, n = 2): 37 °C; for protein binding: after 24-h incubation period
Experimental: Protein binding studies were performed by incubating radiolabelled siderophore (1–2 μg/150 μl) in fresh human serum (850 μl) and in PBS (850 μl) (control) at 37 °C for various time points (30, 60 and 120 min for [^68Ga]siderophores and 1, 4 and 24 h for [^89Zr]siderophores). After incubation, 25 μl of the sample was separated by size-exclusion chromatography (MicroSpin™ G-50 Columns; Sephadex G-50 (GE Healthcare, Buckinghamshire, UK)) by centrifugation at 2000×g for 2 min. Protein binding of radiolabelled siderophores was determined by measuring the activity distributed between the column (non protein-bound) and the eluate (protein-bound) using the automatic gamma counter.

[5] = as above; type: in vitro ADME; conditions: 37 °C
[6] = Small animal PET/CT imaging in Balb/c mice; type: in vivo; conditions: r.o. injection, 5-10 MBq
Experimental: PET and computed tomography (CT) images were acquired with an Albira PET/SPECT/CT small animal imaging system (Bruker Biospin Corporation, Woodbridge, CT, USA). Female Balb/c mice were r.o. injected with radiolabelled siderophores in a dose of 5–10 MBq corresponding to 0.5–1 μg of siderophore per mouse. Animals were anaesthetized with isoflurane (FORANE, Abbott Laboratories, Abbott Park, IL, USA) (2 % flow rate) and positioned prone head first in the Albira system before the start of imaging. Static PET/CT imaging was carried out 5, 30 and 90 min p.i. for both Ga-68 and Zr-89 labelled siderophores. Animals injected with [^89Zr]siderophores were also imaged 4 h p.i. A 5-min PET scan (axial FOV 148 mm) was performed, followed by a CT scan (axial FOV 65 mm, 45 kVp, 400 μA, at 600 projections). Dynamic imaging was carried out immediately after the injection of radiolabelled siderophore for 90 min (5 min PET scan per frame). Scans were reconstructed with the Albira software (Bruker Biospin Corporation, Woodbridge, CT, USA) using the maximum likelihood expectation maximization (MLEM) and filtered backprojection (FBP) algorithms. After reconstruction, acquired data was viewed and analyzed with PMOD software (PMOD Technologies Ltd., Zurich, Switzerland). 3D images were obtained using VolView software (Kitware, Clifton Park, NY, USA). […]

[7] = Ex vivo biodistribution in Balb/c mice; conditions: r.o. injection, 30 and 90 min p.i.
Experimental: Biodistibution of radiolabelled siderophores was studied in female Balb/c mice (8 weeks old). Ga-68 and Zr-89 labelled siderophores (1–2 MBq/mouse, corresponding to 0.1–0.2 μg of siderophore per mouse) were injected retro-orbitally (r.o.). Animals were sacrificed by cervical dislocation 30 and 90 min post-injection (p.i.). Organs and tissues (blood, spleen, pancreas, stomach, intestine, kidneys, liver, heart, lung, muscle and femur) were removed and weighed. The amount of radioactivity in the samples was measured in an automatic gamma counter. Results were expressed as percentage of injected dose per gram organ (%ID/g).

SMILES	Stability in human serum (%) (n = 1) ([1]; incubation time 30 min)	Stability in human serum (%) (n = 1) ([1]; incubation time 60 min)	Stability in human serum (%) (n = 1) ([1]; incubation time 120 min)	in vitro stability (in words) [1]	Stability in DTPA solution (%) (n = 1) ([2]; incubation time 30 min)	Stability in DTPA solution (%) (n = 1) ([2]; incubation time 60 min)	Stability in DTPA solution (%) (n = 1) ([2]; incubation time 120 min)	Log P (mean ± SD, n = 6) ([3]; Ga-68 labelled)	Protein binding (%) (mean, n = 2) ([4]; incubation time 30 min)	Protein binding (%) (mean, n = 2) ([4]; incubation time 60 min)	Protein binding (%) (mean, n = 2) ([4]; incubation time 120 min)	Stability in human serum (%) (n = 1) ([1]; Incubation time (min) 4)	Stability in human serum (%) (n = 1) ([1]; incubation time 24 h)	Stability in DTPA solution (%) (n = 1) ([2]; Incubation time (min) 1)	Stability in DTPA solution (%) (n = 1) ([2]; Incubation time (min) 4)	Stability in DTPA solution (%) (n = 1) ([2]; Incubation time (min) 24)	Log P (mean ± SD, n = 6) ([3]; Zr-89 labelled)	Protein binding (%) (mean, n = 2) [5]; 1	Protein binding (%) (mean, n = 2) [5]; 24	also measured
CC(=O)N([O-])CCCCCNC(=O)CCC(=O)N([O-])CCCCCNC(=O)CCC(=O)N([O-])CCCCCN.[68Ga+3] [[^68Ga]FOXB]	74.1	72.0	75.4	pronounced in vitro instability	60.1	54.5	52.9	−3.56 ± 0.17	7.67	10.29	10.83									
CC(=O)N([O-])CCCCCNC(=O)CCC(=O)N([O-])CCCCCNC(=O)CCC(=O)N([O-])CCCCCN.[89Zr+4] [[^89Zr]FOXB]				higher stability in all examined media								99.70	99.53	91.56	90.39	87.10	−3.01 ± 0.07	1.63	1.84	
CC(=O)NC1CCCN([O-])C(=O)C=C(C)CCOC(=O)C(NC(C)=O)CCCN([O-])C(=O)C=C(C)CCOC(=O)C(NC(C)=O)CCCN([O-])C(=O)C=C(C)CCOC1=O.[68Ga+3] (centres unmarked) [[^68Ga]TAFC, [^68Ga]triacetylfusarinine C]	99.9	99.9	99.9		85.0	84.7	81.8	−2.59 ± 0.15	0.47	0.76	1.21									
O=C1CCC(=O)N([O-])CCCCCNC(=O)CCC(=O)N([O-])CCCCCNC(=O)CCC(=O)N([O-])CCCCCN1.[89Zr+4] [[^89Zr]FOXE, [^89Zr]ferrioxamine E]												99.70	98.34	99.70	99.50	99.70	−1.91 ± 0.04	3.27	16.59	kinetics and excretion route in PET imaging (in words) [6]: much slower kinetics and significant hepatobiliary elimination; ex vivo biodistribution (in words) [7]: significantly higher radioactivity accumulation in the intestines and liver; protein binding [4]: 16.6%
CC(=CC(=O)N([O-])CCCC1NC(=O)CNC(=O)C(CO)NC(=O)C(CO)NC(=O)C(CCCN([O-])C(=O)C=C(C)C(=O)O)NC(=O)C(CCCN([O-])C(=O)C=C(C)C(=O)O)NC1=O)C(=O)O.[89Zr+4] (centres unmarked) [[^89Zr]FCHA]				less stable as compared to its Ga-68 labelled counterpart								85.42	77.38	68.70	65.27	54.22	−3.28 ± 0.37	2.70	31.05	protein binding [4]: 31.1%
CC(=O)NC1CCCN([O-])C(=O)C=C(C)CCOC(=O)C(NC(C)=O)CCCN([O-])C(=O)C=C(C)CCOC(=O)C(NC(C)=O)CCCN([O-])C(=O)C=C(C)CCOC1=O.[89Zr+4] (centres unmarked) [[^89Zr]TAFC, [^89Zr]triacetylfusarinine C]												98.72	98.50	99.51	99.50	99.50	−1.95 ± 0.03	0.99	1.37	
O=C1CCC(=O)N([O-])CCCCCNC(=O)CCC(=O)N([O-])CCCCCNC(=O)CCC(=O)N([O-])CCCCCN1.[68Ga+3] [[^68Ga]FOXE, [^68Ga]ferrioxamine E]	99.9	99.9	99.9		94.3	93.8	93.2	−1.65 ± 0.03	0.27	0.24	0.53									kinetics and excretion route in PET imaging (in words) [6]: quickly eliminated mainly via the kidneys; ex vivo biodistribution (in words) [7]: slightly higher radioactivity values in gastrointestinal tract
